This passage reports Ki results from ChEMBL document CHEMBL5029196, “Novel Isoindolone Compounds as HPK1 Inhibitors for Treating Cancer” (ACS Med Chem Lett, 2022).

Each structure is given as a SMILES string.

Chain of Mitogen-activated protein kinase kinase kinase kinase 1 (Q92918 whole entry): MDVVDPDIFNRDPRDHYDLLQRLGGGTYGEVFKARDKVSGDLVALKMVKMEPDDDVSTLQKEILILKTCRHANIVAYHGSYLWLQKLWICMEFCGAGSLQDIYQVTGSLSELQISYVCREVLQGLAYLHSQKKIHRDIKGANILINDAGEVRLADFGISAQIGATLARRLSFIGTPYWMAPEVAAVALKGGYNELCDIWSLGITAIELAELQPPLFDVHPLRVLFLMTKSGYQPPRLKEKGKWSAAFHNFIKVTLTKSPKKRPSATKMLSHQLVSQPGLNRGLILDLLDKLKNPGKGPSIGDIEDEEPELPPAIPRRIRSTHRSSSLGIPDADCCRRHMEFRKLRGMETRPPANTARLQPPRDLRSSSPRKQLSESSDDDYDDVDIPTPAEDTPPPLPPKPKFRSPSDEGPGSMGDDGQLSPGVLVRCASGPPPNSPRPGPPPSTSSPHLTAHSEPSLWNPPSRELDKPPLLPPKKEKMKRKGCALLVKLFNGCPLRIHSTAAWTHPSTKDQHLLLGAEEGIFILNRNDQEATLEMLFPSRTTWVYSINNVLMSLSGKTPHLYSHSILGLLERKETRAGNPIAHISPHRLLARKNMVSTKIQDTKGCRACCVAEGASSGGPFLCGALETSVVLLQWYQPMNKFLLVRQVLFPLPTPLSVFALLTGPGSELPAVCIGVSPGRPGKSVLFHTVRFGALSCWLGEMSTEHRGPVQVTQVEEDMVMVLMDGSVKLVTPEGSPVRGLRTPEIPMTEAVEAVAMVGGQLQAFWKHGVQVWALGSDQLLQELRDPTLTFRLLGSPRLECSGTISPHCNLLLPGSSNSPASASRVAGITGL

This experiment has as its target Mitogen-activated protein kinase kinase kinase kinase 1 (Homo sapiens, UniProt Q92918). As to the kind of experiment: Inhibition of human full length recombinant HPK1 using 5FAM-AKRRRLSSLRACOOH as substrate preincubated for 20 mins and measured for 60 mins by microfluidic mobility shift assay.
In general, Ki refers to the equilibrium dissociation constant of an inhibitor or competing ligand from its target. For `CC[C@H](C)n1cnnc1-c1cccc(N2Cc3c(CNC)cc(N(C)C)cc3C2=O)n1`, the Ki was found to be 0.4 nM.
To `CC[C@H](C)n1cnnc1-c1cccc(N2Cc3c(CNC)cc(N4CCCC4)cc3C2=O)n1` belongs 0.3 nM; to `COc1cc(CN)c2c(c1)C(=O)N(c1cccc(-c3nncn3[C@@H](C)CC(F)(F)F)n1)C2`, 0.3 nM; to `COc1cc2c(c(S(N)(=O)=O)c1)CN(c1cccc(-c3nncn3C(C)C)n1)C2=O`, 0.4 nM.
To `CC[C@@H](CC(F)(F)F)n1cnnc1-c1cccc(N2Cc3c(CNC)cc(OC)cc3C2=O)n1` belongs 0.4 nM; to `CNCc1cc(OC)cc2c1CN(c1cccc(-c3nncn3[C@@H](C)C3CC3)n1)C2=O`, 0.2 nM.
